According to patent US8846698B2, “Pyrrolo[2,3-d]pyrimidine tropomysin-related kinase inhibitors” (Pfizer Limited, priority 2011, dated 2014):

Molecular target: TRKA (Homo sapiens (Human), UniProt P04629)
Experiment: Isolated TRK enzyme assay (HTRF KinEASE-TK), TRKA
Assay type: biochemical
Settings: read-out: Trka enzyme (IC50)

Sequence of TRKA (P04629 441-796): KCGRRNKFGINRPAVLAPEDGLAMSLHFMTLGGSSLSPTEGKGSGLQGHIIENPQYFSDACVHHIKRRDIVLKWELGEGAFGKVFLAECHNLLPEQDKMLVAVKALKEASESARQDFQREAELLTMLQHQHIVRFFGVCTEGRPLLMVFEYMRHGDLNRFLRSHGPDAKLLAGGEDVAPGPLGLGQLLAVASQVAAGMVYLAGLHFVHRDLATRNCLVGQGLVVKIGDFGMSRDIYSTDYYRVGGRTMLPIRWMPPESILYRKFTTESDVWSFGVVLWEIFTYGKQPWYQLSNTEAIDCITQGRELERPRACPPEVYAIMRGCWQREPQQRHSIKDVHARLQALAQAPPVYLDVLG

## Cc1cc(C(=O)Nc2cncc(C(=O)c3cn(C(C)C)c4ncncc34)c2)nc(C)n1 [Example 479, 2,6-Dimethyl-pyrimidine-4-carboxylic acid [5-(7-isopropyl-7H-pyrrolo[2,3-d]pyrimidine-5-carbonyl)-pyridin-3-yl]-amide]
  IC50: 2160 nM

## Cc1ccc2[nH]c(C)c(CC(=O)Nc3cncc(C(=O)c4cn(C(C)C)c5ncncc45)c3)c2c1 [Example 153, 2-(2,5-dimethyl-1H-indol-3-yl)-N-{5-[(7-isopropyl-7H-pyrrolo[2,3-d]pyrimidin-5-yl)carbonyl]pyridin-3-yl}acetamide]
  IC50: 71.5 nM

## CC(C)n1cc(C(=O)c2cncc(NC(=O)c3ncc4ccccn34)c2)c2cncnc21 [Example 417, Imidazo[1,5-a]pyridine-3-carboxylicacid [5-(7-isopropyl-7H-pyrrolo[2,3-d]pyrimidine-5-carbonyl)-pyridin-3-yl]-amide]
  IC50: 71.2 nM

## CC(C)n1cc(C(=O)c2cncc(NC(=O)Cn3ccc(C4CC4)n3)c2)c2cncnc21 [Example 90, 2-(3-cyclopropyl-1H-pyrazol-1-yl)-N-{5-[(7-isopropyl-7H-pyrrolo[2,3-d]pyrimidin-5-yl)carbonyl]pyridin-3-yl}acetamide]
  IC50: 8.81 nM

## Cc1c[nH]c(C(=O)Nc2cncc(C(=O)c3cn(C(C)C)c4ncncc34)c2)n1 [Example 391, 4-Methyl-1H-imidazole-2-carboxylic acid [5-(7-isopropyl-7H-pyrrolo[2,3-d]pyrimidine-5-carbonyl)-pyridin-3-yl]-amide]
  IC50: 246 nM

## O=C(Cc1cccc(C(F)(F)F)c1)Nc1cncc(C(=O)c2cn(C(CO)CO)c3ncncc23)c1 [Example 274, N-(5-(7-(1,3-dihydroxypropan-2-yl)-7H-pyrrolo[2,3-d]pyrimidine-5-carbonyl)pyridin-3-yl)-2-(3-(trifluoromethyl)phenyl)acetamide]
  IC50: 38.6 nM

## CC(C)n1cc(C(=O)c2c[nH]c(=O)c(NC(=O)Cc3ccc4cccnc4c3)c2)c2cncnc21 [Example 588, N-(2-oxo-5-{[7-(propan-2-yl)-7H-pyrrolo[2,3-d]pyrimidin-5-yl]carbonyl}-1,2-dihydropyridin-3-yl)-2-(quinolin-7-yl)acetamide]
  IC50: 334 nM

## CC(C)n1cc(C(=O)c2cncc(NC(=O)c3ccc(Cl)cn3)c2)c2cncnc21 [Example 466, 5-Chloro-pyridine-2-carboxylic acid[5-(7-isopropyl-7H-pyrrolo[2,3-d]pyrimidine-5-carbonyl)-pyridin-3-yl]-amide]
  IC50: 400 nM

## CC(C)n1cc(C(=O)c2cncc(NC(=O)Cc3ccc4nccnc4c3)c2)c2cncnc21 [Example 81, N-{5-[(7-isopropyl-7H-pyrrolo[2,3-d]pyrimidin-5-yl)carbonyl]pyridin-3-yl}-2-quinoxalin-6-ylacetamide]
  IC50: 197 nM

## CCc1cc(C(=O)Nc2cncc(C(=O)c3cn(C(C)C)c4ncncc34)c2)no1 [Example 396, 5-Ethyl-isoxazole-3-carboxylic acid[5-(7-isopropyl-7H-pyrrolo[2,3-d]pyrimidine-5-carbonyl)-pyridin-3-yl]-amide]
  IC50: 177 nM

## CC(C)n1cc(C(=O)c2c[nH]c(=O)c(NC(=O)COc3ccccc3OC(F)(F)F)c2)c2cncnc21 [Example 585, N-(2-oxo-5-{[7-(propan-2-yl)-7H-pyrrolo[2,3-d]pyrimidin-5-yl]carbonyl}-1,2-dihydropyridin-3-yl)-2-[2-(trifluoromethoxy)phenoxy]acetamide]
  IC50: 36.7 nM

## CC(C)n1cc(C(=O)c2cncc(NC(=O)c3cnc4cn[nH]c4c3)c2)c2cncnc21 [Example 395, 1H-Pyrazolo[4,3-b]pyridine-6-carboxylic acid [5-(7-isopropyl-7H-pyrrolo[2,3-d]pyrimidine-5-carbonyl)-pyridin-3-yl]-amide]
  IC50: 1350 nM

## O=C(Cc1ccc(Cl)cc1Cl)Nc1cncc(C(=O)c2cn(C(CO)CO)c3ncncc23)c1 [Example 278, 2-(2,4-dichlorophenyl)-N-[5-({7-[2-hydroxy-1-(hydroxymethyl)ethyl]-7H-pyrrolo[2,3-d]pyrimidin-5-yl}carbonyl)pyridin-3-yl]acetamide]
  IC50: 54.3 nM

## CC(C)n1ncc(CC(=O)Nc2cncc(C(=O)c3cn(C(C)C)c4ncncc34)c2)c1C(F)(F)F [Example 112, N-{5-[(7-isopropyl-7H-pyrrolo[2,3-d]pyrimidin-5-yl)carbonyl]pyridin-3-yl}-2-[1-isopropyl-5-(trifluoromethyl)-1H-pyrazol-4-yl]acetamide]
  IC50: 57.8 nM

## C[C@H](CO)n1cc(C(=O)c2cncc(NC(=O)Cc3cccc(C(F)(F)F)c3)c2)c2cncnc21 [Example 205, N-[5-({7-[(1R)-2-hydroxy-1-methylethyl]-7H-pyrrolo[2,3-d]pyrimidin-5-yl}carbonyl)pyridin-3-yl]-2-[3-(trifluoromethyl)phenyl]acetamide]
  IC50: 12.2 nM

## CC(C)n1cc(C(=O)c2cncc(NC(=O)Cn3cc4cccc(F)c4n3)c2)c2cncnc21 [Example 101, 2-(7-fluoro-2H-indazol-2-yl)-N-{5-[(7-isopropyl-7H-pyrrolo[2,3-d]pyrimidin-5-yl)carbonyl]pyridin-3-yl}acetamide]
  IC50: 204 nM

## CC(C)n1cc(C(=O)c2cncc(NC(=O)c3nccc4[nH]ccc34)c2)c2cncnc21 [Example 444, 1H-Pyrrolo[3,2-c]pyridine-4-carboxylic acid [5-(7-isopropyl-7H-pyrrolo[2,3-d]pyrimidine-5-carbonyl)-pyridin-3-yl]amide]
  IC50: 496 nM

## CC(C)n1cc(C(=O)c2cncc(NC(=O)c3cnc4[nH]ncc4c3)c2)c2cncnc21 [Example 486, 1H-Pyrazolo[3,4-b]pyridine-5-carboxylic acid [5-(7-isopropyl-7H-pyrrolo[2,3-d]pyrimidine-5-carbonyl)-pyridin-3-yl]-amide]
  IC50: 805 nM

## COc1ccc(C(=O)Nc2cncc(C(=O)c3cn(C(C)C)c4ncncc34)c2)nc1 [Example 425, 5-Methoxy-pyridine-2-carboxylic acid [5-(7-isopropyl-7H-pyrrolo[2,3-d]pyrimidine-5-carbonyl)-pyridin-3-yl]-amide]
  IC50: 796 nM

## CC(C)n1cc(C(=O)c2cncc(NC(=O)c3cc4occc4[nH]3)c2)c2cncnc21 [Example 431, 4H-Furo[3,2-b]pyrrole-5-carboxylic acid [5-(7-isopropyl-7H-pyrrolo1[2,3-d]pyrimidine-5-carbonyl)-pyridin-3-yl]-amide]
  IC50: 235 nM

## COc1cccc(CC(=O)Nc2cncc(C(=O)c3cn(C)c4ncncc34)c2)c1 [Example 175, 2-(3-methoxyphenyl)-N-{5-[(7-methyl-7H-pyrrolo[2,3-d]pyrimidin-5-yl)carbonyl]pyridin-3-yl}acetamide]
  IC50: 2590 nM

## O=C(Cc1ccc(Cl)cc1)Nc1cncc(C(=O)c2cn(C3(CO)COC3)c3ncncc23)c1 [Example 299, 2-(4-Chloro-phenyl)-N-{5-[7-(3-hydroxymethyl-oxetan-3-yl)-7H-pyrrolo[2,3-d]pyrimidine-5-carbonyl]-pyridin-3-yl}-acetamide]
  IC50: 539 nM

## COc1cncc(C(=O)Nc2cncc(C(=O)c3cn(C(C)C)c4ncncc34)c2)c1 [Example 485, N-[5-(7-Isopropyl-7H-pyrrolo[2,3-d]pyrimidine-5-carbonyl)-pyridin-3-yl]-5-methoxy-nicotinamide]
  IC50: 20 nM

## Nc1ncc2c(C(=O)c3cncc(NC(=O)Cc4ccc(F)cn4)c3)cn(C34CC(C3)C4)c2n1 [Example 578, N-[5-(2-Amino-7-bicyclo[1.1.1]pent-1-yl-7H-pyrrolo[2,3-d]pyrimidine-5-carbonyl)-pyridin-3-yl]-2-(5-fluoro-pyridin-2-yl)-acetamide]
  IC50: 6.07 nM

## Cc1ccc2ccc(CC(=O)Nc3cncc(C(=O)c4cn(C(C)C)c5ncncc45)c3)cc2n1 [Example 155, N-{5-[(7-isopropyl-7H-pyrrolo[2,3-d]pyrimidin-5-yl)carbonyl]pyridin-3-yl}-2-(2-methylquinolin-7-yl)acetamide]
  IC50: 49.1 nM

## CC(C)n1cc(C(=O)c2cncc(NC(=O)Cc3c[nH]c4nccnc34)c2)c2cncnc21 [Example 159, N-{5-[(7-isopropyl-7H-pyrrolo[2,3-d]pyrimidin-5-yl)carbonyl]pyridin-3-yl}-2-(5H-pyrrolo[2,3-b]pyrazin-7-yl)acetamide]
  IC50: 234 nM

## Cc1nn(C)cc1C(=O)Nc1cncc(C(=O)c2cn(C(C)C)c3ncncc23)c1 [Example 394, 1,3-Dimethyl-1H-pyrazole-4-carboxylic acid [5-(7-isopropyl-7H-pyrrolo[2,3-d]pyrimidine-5-carbonyl)-pyridin-3-yl]-amide]
  IC50: 7120 nM

## CC(C)n1cc(C(=O)c2cncc(NC(=O)c3c[nH]nc3C3CCC3)c2)c2cncnc21 [Example 389, 3-Cyclobutyl-1H-pyrazole-4-carboxylic acid [5-(7-isopropyl-7H-pyrrolo[2,3-d]pyrimidine-5-carbonyl)-pyridin-3-yl]-amide]
  IC50: 84.3 nM

## CC(C)n1cc(C(=O)c2cncc(NC(=O)Cn3cc(-c4ccccn4)nn3)c2)c2cncnc21 [Example 161, N-{5-[(7-isopropyl-7H-pyrrolo[2,3-d]pyrimidin-5-yl)carbonyl]pyridin-3-yl}-2-(4-pyridin-2-yl-1H-1,2,3-triazol-1-yl)acetamide]
  IC50: 6270 nM

## Cc1ocnc1C(=O)Nc1cncc(C(=O)c2cn(C(C)C)c3ncncc23)c1 [Example 477, 5-Methyl-oxazole-4-carboxylic acid [5-(7-isopropyl-7H-pyrrolo[2,3-d]pyrimidine-5-carbonyl)-pyridin-3-yl]-amide]
  IC50: 3030 nM

## CCc1nc2ccccc2n1CC(=O)Nc1cncc(C(=O)c2cn(C(C)C)c3ncncc23)c1 [Example 142, 2-(2-ethyl-1H-benzimidazol-1-yl)-N-{5-[(7-isopropyl-7H-pyrrolo[2,3-d]pyrimidin-5-yl)carbonyl]pyridin-3-yl}acetamide]
  IC50: 1380 nM

## Cc1cccnc1C(=O)Nc1cncc(C(=O)c2cn(C(C)C)c3ncncc23)c1 [Example 490, 3-Methyl-pyridine-2-carboxylic acid[5-(7-isopropyl-7H-pyrrolo[2,3-d]pyrimidine-5-carbonyl)-pyridin-3-yl]-amide]
  IC50: 9800 nM

## CC(CO)(CO)n1cc(C(=O)c2cncc(NC(=O)c3ccc(C(F)(F)F)c(F)c3)c2)c2cncnc21 [Example 265, N-(5-(7-(1,3-dihydroxy-2-methylpropan-2-yl)-7H-pyrrolo[2,3-d]pyrimidine-5-carbonyl)pyridin-3-yl)-3-fluoro-4-(trifluoromethyl)benzamide]
  IC50: 69 nM
